Data taken from article PMC10965793, “Synthesis and biological evaluation of pyridylpiperazine hybrid derivatives as urease inhibitors” (Frontiers in Chemistry, 2024).
“Also recorded” adds a separate entry of the source. Like-named read-outs stand apart in the source and are kept apart here.

How the values were obtained:
[1] = biological target: jack bean urease (Canavalia ensiformis, UniProt P07374); test: biochemical
Procedure: The inhibitory activity of 1-(3-nitropyridin-2-yl)piperazine derivatives (5a-o; 7a-k) was assessed in vitro against urease with minor modifications using the indophenol method ([Al Azzam et al., 2022]; [Da Costa et al., 2022]). At first, 1 mM solution of a test compound was prepared in 10% DMSO followed by the preparation of the reaction mixture. The reaction mixture was prepared by adding 30 μL of reaction buffer (100 mmol/L of urea, 1 mmol/L of EDTA, 10 mmol/L of LiCl2, 10 mmol/L of KH2PO4; pH: 8.2), 50 μL of R1 (120 mmol/L phosphate buffer, 60 mmol/L sodium salicylate, 5 mmol/L sodium nitroprusside, 1 mmol/L EDTA and 5 KU/L urease), 10 μL of substrate (1 mM urea), and 10 μL of test compound in triplicate in a 96-well plate. After 5 min of incubation at ambient temperature, 70 μL of R2 (120 mmol/L phosphate buffer, 400 mmol/L sodium hydroxide, and 10 mmol/L sodium hypochlorite) was added to the reaction mixture ([Rauf et al., 2013]). After another incubation period of 10 min at room temperature, the absorbance was measured using a microplate reader (Bio-Tek, United States) at a particular wavelength of 630 nm. […] The following equation was used to determine the percentage of inhibition for each test compound. Percentage inhibition=100–Absorbance of test compound/ Absorbance of negative control×100
The IC50 values of test compounds (5a-o; 7a-k) at various concentrations were determined by analyzing the data, obtained from in vitro urease inhibitory assay, by GraphPad Prism version 8.0.2 (GraphPad, California, United States).

[2] = test system: human blood cells; test: In vitro hemocompatibility screening (hemolysis); assay type: cell-based; conditions: hemolysis percentage at 0.5 mg/mL and 1 mg/mL nearer to that of PBS
Procedure: 1-(3-nitropyridin-2-yl)piperazine 3 and its derivatives (5b, 5c, 5i; 7e, 7h) were analyzed for hemolysis activity due to their remarkable urease inhibition potential. […] Experimental data on hemolysis percentage have been depicted in Figure 5.
Hemolysis is the rupturing of the cell membrane of red blood cells that causes the expulsion of hemoglobin into the blood plasma. To analyze the effects of 1-(3-nitropyridin-2-yl)piperazine 3 and its derivatives (5b, 5c, 5i; 7e, 7h) on human blood, a hemolysis analysis was carried out (Supplementary Figure S69). About 5 mL fresh sample of human blood was collected from a volunteer and transferred to a vacutainer tube containing EDTA to prevent coagulation. The ultracentrifugation of the blood sample was carried out at 3,000 rpm for 20 min and the separated plasma was discarded. The blood cells were washed about three times by using a double volume of phosphate buffer solution (PBS) (pH = 7.4). […] To quantify hemoglobin in test samples, the absorbance of the supernatant was measured at 540 nm ([Munawwar et al., 2023]). From the absorbance value, the hemolysis percentage was determined by the following formula: Hemolysis %=Absorbance of test sample−Absorbance of negative control/[…]

[3] = test system: urease; conditions: 2022, cited from earlier work

jack bean urease, sequence (P07374 whole entry, looked up): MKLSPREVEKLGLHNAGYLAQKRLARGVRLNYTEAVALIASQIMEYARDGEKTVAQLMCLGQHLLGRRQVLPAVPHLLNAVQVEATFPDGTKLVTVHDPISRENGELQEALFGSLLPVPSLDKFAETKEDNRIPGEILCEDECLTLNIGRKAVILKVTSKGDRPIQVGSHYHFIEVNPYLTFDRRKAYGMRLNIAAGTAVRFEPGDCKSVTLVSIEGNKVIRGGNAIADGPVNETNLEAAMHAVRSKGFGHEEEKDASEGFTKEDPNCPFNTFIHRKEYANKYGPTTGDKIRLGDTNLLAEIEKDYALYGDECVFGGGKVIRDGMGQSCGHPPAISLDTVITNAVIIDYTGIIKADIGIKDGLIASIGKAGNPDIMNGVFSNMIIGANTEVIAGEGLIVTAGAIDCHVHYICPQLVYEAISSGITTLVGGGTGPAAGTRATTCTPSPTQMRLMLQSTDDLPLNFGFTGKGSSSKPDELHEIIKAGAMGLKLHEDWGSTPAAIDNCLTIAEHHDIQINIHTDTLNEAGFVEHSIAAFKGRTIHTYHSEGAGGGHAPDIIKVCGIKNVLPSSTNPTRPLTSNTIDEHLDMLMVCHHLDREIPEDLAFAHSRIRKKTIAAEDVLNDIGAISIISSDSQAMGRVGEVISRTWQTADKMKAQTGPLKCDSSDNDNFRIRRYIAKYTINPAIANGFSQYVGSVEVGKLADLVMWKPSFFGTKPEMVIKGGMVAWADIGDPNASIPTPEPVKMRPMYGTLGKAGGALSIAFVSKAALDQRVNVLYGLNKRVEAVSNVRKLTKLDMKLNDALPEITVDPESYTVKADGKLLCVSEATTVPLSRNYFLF

| SMILES | IC50 [1] [µM] | melting point [°C] | biocompatibility in human blood cells (hemolysis percentage) [2] | IC50 ([3]; in Figure 3, ref Moghadam et al.) [µM] | IC50 ([3]; in Figure 3, ref Naseer et al.) [µM] |
| --- | --- | --- | --- | --- | --- |
| O=C(CN1CCN(c2ncccc2[N+](=O)[O-])CC1)Nc1ccccc1 [5a, 2-(4-(3-Nitropyridin-2-yl)piperazin-1-yl)-N-phenylacetamide] | 3.58 ± 0.84 | 79 to 80 | – | – | – |
| O=C(CN1CCN(c2ncccc2[N+](=O)[O-])CC1)Nc1ccccc1Cl [5b, N-(2-Chlorophenyl)-2-(4-(3-nitropyridin-2-yl)piperazin-1-yl)acetamide] | 2 ± 0.73 | – | – | – | – |
| O=C(CN1CCN(c2ncccc2[N+](=O)[O-])CC1)Nc1cccc(Cl)c1 [5c, N-(3-Chlorophenyl)-2-(4-(3-nitropyridin-2-yl)piperazin-1-yl)acetamide] | 2.13 ± 0.82 | 71 to 73 | – | – | – |
| O=C(CN1CCN(c2ncccc2[N+](=O)[O-])CC1)Nc1ccc(Cl)cc1 [5d, N-(4-Chlorophenyl)-2-(4-(3-nitropyridin-2-yl)piperazin-1-yl)acetamide] | 8.25 ± 0.41 | 99 to 100 | – | – | – |
| O=C(CN1CCN(c2ncccc2[N+](=O)[O-])CC1)Nc1ccccc1Br [5e, N-(2-Bromophenyl)-2-(4-(3-nitropyridin-2-yl)piperazin-1-yl)acetamide] | 4.47 ± 0.44 | 109 to 110 | – | – | – |
| O=C(CN1CCN(c2ncccc2[N+](=O)[O-])CC1)Nc1cccc(Br)c1 [5f, N-(3-Bromophenyl)-2-(4-(3-nitropyridin-2-yl)piperazin-1-yl)acetamide] | 5.24 ± 0.45 | 101 to 102 | – | – | – |
| O=C(CN1CCN(c2ncccc2[N+](=O)[O-])CC1)Nc1ccc(Br)cc1 [5g, N-(4-Bromophenyl)-2-(4-(3-nitropyridin-2-yl)piperazin-1-yl)acetamide] | 8.43 ± 0.41 | 115 to 116 | – | – | – |
| O=C(CN1CCN(c2ncccc2[N+](=O)[O-])CC1)Nc1ccccc1[N+](=O)[O-] [5h, N-(2-Nitrophenyl)-2-(4-(3-nitropyridin-2-yl)piperazin-1-yl)acetamide] | 7.12 ± 0.39 | 113 to 115 | – | – | – |
| O=C(CN1CCN(c2ncccc2[N+](=O)[O-])CC1)Nc1cccc([N+](=O)[O-])c1 [5i, N-(3-Nitrophenyl)-2-(4-(3-nitropyridin-2-yl)piperazin-1-yl)acetamide] | 2.56 ± 0.55 | 139 to 141 | – | – | – |
| O=C(CN1CCN(c2ncccc2[N+](=O)[O-])CC1)Nc1ccc([N+](=O)[O-])cc1 [5j, N-(4-Nitrophenyl)-2-(4-(3-nitropyridin-2-yl)piperazin-1-yl)acetamide] | 4.19 ± 0.41 | 145 to 146 | – | – | – |
| Cc1ccccc1NC(=O)CN1CCN(c2ncccc2[N+](=O)[O-])CC1 [5k, 2-(4-(3-Nitropyridin-2-yl)piperazin-1-yl)-N-(ortho-tolyl)acetamide] | 14.1 ± 0.67 | 105 to 106 | – | – | – |
| Cc1cccc(NC(=O)CN2CCN(c3ncccc3[N+](=O)[O-])CC2)c1 [5l, 2-(4-(3-Nitropyridin-2-yl)piperazin-1-yl)-N-(meta-tolyl)acetamide] | 7.14 ± 0.46 | 95 to 96 | – | – | – |
| Cc1ccc(NC(=O)CN2CCN(c3ncccc3[N+](=O)[O-])CC2)cc1 [5m, 2-(4-(3-Nitropyridin-2-yl)piperazin-1-yl)-N-(para-tolyl)acetamide] | 9.37 ± 0.4 | 112 to 113 | – | – | – |
| COc1ccccc1NC(=O)CN1CCN(c2ncccc2[N+](=O)[O-])CC1 [5n, N-(2-Methoxyphenyl)-2-(4-(3-nitropyridin-2-yl)piperazin-1-yl)acetamide] | 5.33 ± 0.44 | 120 to 121 | – | – | – |
| COc1ccc(NC(=O)CN2CCN(c3ncccc3[N+](=O)[O-])CC2)cc1 [5o, N-(4-Methoxyphenyl)-2-(4-(3-nitropyridin-2-yl)piperazin-1-yl)acetamide] | 5.21 ± 0.47 | 107 to 108 | – | – | – |
| CC(C(=O)Nc1ccccc1)N1CCN(c2ncccc2[N+](=O)[O-])CC1 (stereo not shown) [7a, 2-(4-(3-Nitropyridin-2-yl)piperazin-1-yl)-N-phenylpropanamide] | 7.41 ± 0.44 | 92 to 94 | – | – | – |
| CC(C(=O)Nc1cccc(Cl)c1)N1CCN(c2ncccc2[N+](=O)[O-])CC1 (stereo not shown) [7b, N-(3-Chlorophenyl)-2-(4-(3-nitropyridin-2-yl)piperazin-1-yl)propanamide] | 6.7 ± 0.37 | 107 to 109 | – | – | – |
| CC(C(=O)Nc1ccc(Cl)cc1)N1CCN(c2ncccc2[N+](=O)[O-])CC1 (stereo not shown) [7c, N-(4-Chlorophenyl)-2-(4-(3-nitropyridin-2-yl)piperazin-1-yl)propanamide] | 7.38 ± 0.37 | 57 to 59 | – | – | – |
| CC(C(=O)Nc1ccccc1Br)N1CCN(c2ncccc2[N+](=O)[O-])CC1 (stereo not shown) [7d, N-(2-Bromophenyl)-2-(4-(3-nitropyridin-2-yl)piperazin-1-yl)propanamide] | 6.74 ± 0.49 | 91 to 94 | – | – | – |
| CC(C(=O)Nc1ccccc1[N+](=O)[O-])N1CCN(c2ncccc2[N+](=O)[O-])CC1 (stereo not shown) [7e, N-(2-Nitrophenyl)-2-(4-(3-nitropyridin-2-yl)piperazin-1-yl)propanamide] | 2.24 ± 1.63 | – | more biocompatible; also recorded: good biocompatibility | – | – |
| CC(C(=O)Nc1cccc([N+](=O)[O-])c1)N1CCN(c2ncccc2[N+](=O)[O-])CC1 (stereo not shown) [7f, N-(3-Nitrophenyl)-2-(4-(3-nitropyridin-2-yl)piperazin-1-yl)propanamide] | 7.66 ± 0.37 | 120 to 121 | – | – | – |
| CC(C(=O)Nc1ccc([N+](=O)[O-])cc1)N1CCN(c2ncccc2[N+](=O)[O-])CC1 (stereo not shown) [7g, N-(4-Nitrophenyl)-2-(4-(3-nitropyridin-2-yl)piperazin-1-yl)propanamide] | 6.13 ± 0.4 | 159 to 161 | – | – | – |
| Cc1ccccc1NC(=O)C(C)N1CCN(c2ncccc2[N+](=O)[O-])CC1 (stereo not shown) [7h, N-(ortho-Tolyl)-2-(4-(3-nitropyridin-2-yl)piperazin-1-yl)propanamide] | 3.01 ± 0.45 | 90 to 92 | more biocompatible; also recorded: good biocompatibility | – | – |
| Cc1ccc(NC(=O)C(C)N2CCN(c3ncccc3[N+](=O)[O-])CC2)cc1 (stereo not shown) [7i, N-(para-Tolyl)-2-(4-(3-nitropyridin-2-yl)piperazin-1-yl)propanamide] | 5.65 ± 0.4 | 88 to 89 | – | – | – |
| COc1ccccc1NC(=O)C(C)N1CCN(c2ncccc2[N+](=O)[O-])CC1 (stereo not shown) [7j, N-(2-Methoxyphenyl)-2-(4-(3-nitropyridin-2-yl)piperazin-1-yl)propanamide] | 5.32 ± 0.41 | 108 to 110 | – | – | – |
| COc1ccc(NC(=O)C(C)N2CCN(c3ncccc3[N+](=O)[O-])CC2)cc1 (stereo not shown) [7k, N-(4-Methoxyphenyl)-2-(4-(3-nitropyridin-2-yl)piperazin-1-yl)propanamide] | 5.95 ± 0.43 | 62 to 64 | – | – | – |
| COc1ccccc1N1CCN(c2ccc(/C=N/NC(N)=O)cc2)CC1 [Piperazine based semicarbazone] | – | – | – | 3.95 | – |
| NC(=S)N/N=C/c1ccc(Cl)cn1 [Pyridine carbothioamide] | – | – | – | – | 1.07 |
| O=[N+]([O-])c1cccnc1N1CCNCC1 [compound 3, 1-(3-Nitropyridin-2-yl)piperazine] | 3.9 ± 1.91 | – | – | – | – |
